Data: patent US20250280826A1, “PLANT GROWTH PROMOTER” (KAO CORPORATION, priority 2022, published 2025)

Tests used:
soybean [1] = assay: Example 5: soybean nodule activity after application of high concentration of ascorbic acid; type: in vivo; conditions: ascorbic acid dissolved in deionized water in comparison to tap water, regardless of amount of water
Text: The items of the preparation of soil and sowing, the inoculation of Rhizobium, the cultivation conditions, the exudate collection method for measuring the amount of ureide nitrogen as an indicator of nodule activity, the experimental operation before quantification of exudate, the equipment and measurement method used for quantification of the amount of ureide nitrogen, and the standard products used and quantification were the same as those in Example 3, and the cultivation of soybean was carried out for 21 days.
Foliar spray treatment was carried out on day 14 after sowing. In addition to the reagents mentioned in Examples 2, 3, and 4, polyethylene glycol monolaurate and a glycerol fatty acid ester were used as nonionic surfactants. The reagents were dissolved in tap water or deionized water to prepare spraying solutions. Foliar spray was carried out only once. Assuming aerial spraying, 8 types of test plots containing a high concentration of ascorbic acid were examined (Table 6). In the test plots 2 and 3, 6.7 mL of each per plant was sprayed using a mister, and in the test plots 4 to 8, 0.125 mL of each per plant was sprayed.
(§1) The mean and the standard deviation were calculated from the data of four repeats, excluding the highest and the lowest values from the six repeats in each test plot.

legume crops = conditions: total of three foliar sprays, ascorbic acid solution dissolved in distilled water, vegetative or reproductive growth stage; cited from earlier work
soybean [2] = assay: Example 2: soybean nodule weight one week after foliar spray; type: in vivo
Description: (§2) Medium-term fertilizer effect type culture soil (Takii hydrous cell medium-term fertilizer effect type, Takii & Co., Ltd.) and vermiculite grains (Akagi-Engei Co., Ltd.) were mixed at a volume ratio of 1:1, and the soil was placed in a polypot (diameter: 10.5 cm, height: 9 cm). The soybean seeds used were “Enrei” (purchased from Nikko Seed Co. Ltd.). After tap water was supplied in an amount of 250 mL per pot, 2 seeds per pot were each sown at a depth of from about 1 to 2 cm from the soil surface. The number of repeats in each test plot was 6 (n=6).
(§3) 1.5% agar (Wako Pure Chemical Industries, Ltd.) was added to Yeast-Mannitol (YM) medium (0.5 g of K2HPO4, 0.2 g of MgSO4-7H2O, 0.1 g of NaCl, 0.4 g of yeast extract, 10 g of mannitol, and 1 L of distilled water (pH: 6.8)) to prepare a solid medium, and a soybean Rhizobium (Bradyrhizobium japonicum) NBRC14783T strain was grown on the solid medium. A platinum loop of the grown Rhizobium was taken and inoculated in 50 mL of YM liquid medium in a Sakaguchi flask with a volume of 500 mL, and shake-cultured at 30° C. for about 36 hours. A Rhizobium culture solution whose value of turbidity OD600 of bacterial cells was about 0.3 was prepared. […]
as §1

soybean [3] = assay: Example 2: soybean nodule activity (ureide in exudate) one week after foliar spray; type: in vivo
Description: as §2
as §3, with “hours.” for “hours. A Rhizobium culture solution whose value of turbidity OD600 of bacterial cells was about 0.3 was prepared.”
Exudate components contained in the cotton balls were eluted with ultrapure water and filtered using Micro Biospin chromatography column (Bio-Rad Laboratories, Inc.). […] The 1 000-fold diluted filtrate was quantified. […]

[4] = ascorbic acid 1,500 ppm dissolved in deionized water, soybean early growth stage
[5] = ascorbic acid 1,500 ppm dissolved in tap water

SMILES: O=C1O[C@H]([C@@H](O)CO)C(O)=C1O [ascorbic acid, (R)-3,4-dihydroxy-5-((S)-1,2-dihydroxyethyl)furan-2(5H)-one]
- nodule activity (allantoic acid in exudate) (soybean [1]): increased
- increase the yield (legume crops): up to 30%
- nodule weight (soybean [2]; [4]): increased
- application effect of ascorbic acid (nodule weight) (soybean [2]; [5]): tended to decrease
- nodule activity (soybean [3]; [4]): increased
- application effect of ascorbic acid (nodule activity) (soybean [3]; [5]): tended to decrease
